A value given as a limit tells only on which side of the number the result lay.

The target in one assay is T1, IKBKB (IKKβ) (Homo sapiens, UniProt O14920).
T1 construct: purchased Invitrogen (Paisley, UK)
T1 sequence (O14920 1-756): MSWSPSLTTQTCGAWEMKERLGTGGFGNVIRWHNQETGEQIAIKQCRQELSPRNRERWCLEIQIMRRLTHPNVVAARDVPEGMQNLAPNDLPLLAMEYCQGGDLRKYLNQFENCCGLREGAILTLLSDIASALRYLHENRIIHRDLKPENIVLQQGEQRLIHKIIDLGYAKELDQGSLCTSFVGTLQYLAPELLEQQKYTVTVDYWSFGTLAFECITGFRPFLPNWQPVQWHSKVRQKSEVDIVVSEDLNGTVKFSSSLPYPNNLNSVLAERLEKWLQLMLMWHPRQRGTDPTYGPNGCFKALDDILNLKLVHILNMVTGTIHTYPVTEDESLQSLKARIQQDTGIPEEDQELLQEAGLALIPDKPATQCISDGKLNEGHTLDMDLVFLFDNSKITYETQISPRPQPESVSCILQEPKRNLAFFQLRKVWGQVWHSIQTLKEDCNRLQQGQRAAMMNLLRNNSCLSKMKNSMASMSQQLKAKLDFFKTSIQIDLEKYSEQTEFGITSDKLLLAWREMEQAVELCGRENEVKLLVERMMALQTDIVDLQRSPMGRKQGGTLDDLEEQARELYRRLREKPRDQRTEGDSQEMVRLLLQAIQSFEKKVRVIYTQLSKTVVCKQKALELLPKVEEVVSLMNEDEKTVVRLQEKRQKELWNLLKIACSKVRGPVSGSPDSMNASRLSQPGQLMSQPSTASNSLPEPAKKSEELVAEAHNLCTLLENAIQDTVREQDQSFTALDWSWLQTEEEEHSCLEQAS
In words: IKKβ enzyme assay (Z'-LYTE, Invitrogen). The format is biochemical. Particulars: ATP at or close to Km; read-out: Inhibitor activity versus IKKβ. As for the experimental part:
The ability of compounds to inhibit IKKβ kinase activity was measured in an assay performed by Invitrogen (Paisley, UK). The Z′-LYTE™ biochemical assay employs a fluorescence-based, coupled-enzyme format and is based on the differential sensitivity of phosphorylated and non-phosphorylated peptides to proteolytic cleavage. The peptide substrate is labelled with two fluorophores—one at each end—that make up a FRET pair. In the primary reaction, the kinase transfers the gamma-phosphate of ATP to a single serine or threonine residue in a synthetic FRET-peptide. In the secondary reaction, a site-specific protease recognizes and cleaves non-phosphorylated FRET-peptides. Phosphorylation of FRET-peptides suppresses cleavage by the Development Reagent. Cleavage disrupts FRET between the donor (i.e., coumarin) and acceptor (i.e. fluorescein) fluorophores on the FRET-peptide, whereas uncleaved, phosphorylated FRET-peptides maintain FRET. A […] method, which calculates the ratio (the Emission Ratio) of donor emission to acceptor emission after excitation of the donor fluorophore at 400 nm, is used to quantitate reaction progress.
The final 10 μL Kinase Reaction consists of 0.9-8.0 ng IKBKB (IKKβ), 2 μM Ser/Thr 05 Peptide and ATP in 50 mM HEPES pH 7.5, 0.01% BRIJ-35, 10 mM MgCl2, 1 mM EGTA. The assay is performed at an ATP concentration at, or close to the Km. After the 60 minute Kinase Reaction incubation at room temperature, 5 μL of a 1:128 dilution of Development Reagent is added. The assay plate is incubated for a further 60 minutes at room temperature and read on a fluorescence plate reader.
Duplicate data points are generated from a ⅓ log dilution series of a stock solution of test compound in DMSO. Nine dilutions steps are made from a top concentration of 10 μM, and a ‘no compound’ blank is included. Data is collected and analysed using XLfit software from IDBS. The dose response curve is curve fitted to model number 205 (sigmoidal dose-response model). From the curve generated, the concentration giving 50% inhibition is determined and reported.

The next assay deals with THP-1 cells. In words: LPS-stimulation of THP-1 cells, TNF-α release. The following applies: Homo sapiens, LPS 1 μg/ml, 6 hrs, inhibitor added 2 hrs before, read-out: Inhibitor activity versus THP-1 TNFα release. The format is cell-based. As for the experimental part: LPS-Stimulation of THP-1 Cells
THP-1 cells were plated in 100 μl at a density of 4×10^4 cells/well in V-bottomed 96 well tissue culture treated plates and incubated at 37° C. in 5% CO2 for 16 hrs. 2 hrs after the addition of the inhibitor in 100 μl of tissue culture media, the cells were stimulated with LPS (E coli strain 005:B5, Sigma) at a final concentration of 1 μg/ml and incubated at 37° C. in 5% CO2 for 6 hrs. TNF-α levels were measured from cell-free supernatants by sandwich ELISA (R&D Systems #QTA00B)

In another assay the test system is human whole blood. In words: LPS-stimulation of human whole blood, TNF-α release. The format is cell-based. Particulars: LPS 100 ng/ml, 6 hrs, inhibitor added 2 hrs before, read-out: Inhibitor activity versus human whole blood TNFα release. On the procedure: LPS-Stimulation of Human Whole Blood
Whole blood was taken by venous puncture using heparinised vacutainers (Becton Dickinson) and diluted in an equal volume of RPMI1640 tissue culture media (Sigma). 100 μl was plated in V-bottomed 96 well tissue culture treated plates. 2 hrs after the addition of the inhibitor in 100 μl of RPMI1640 media, the blood was stimulated with LPS (E coli strain 005:B5, Sigma) at a final concentration of 100 ng/ml and incubated at 37° C. in 5% CO2 for 6 hrs. TNF-α levels were measured from cell-free supernatants by sandwich ELISA (R&D Systems #QTA00B)

For `NC(=O)Nc1sc(-c2ccc(OCC[C@H](N)C(=O)OC3CCCC3)c(Cl)c2)cc1C(N)=O` [Example 8, Cyclopentyl O-{4-[4-carbamoyl-5-(carbamoylamino)-2-thienyl]-2-chlorolphenyl}-L-homoserinate], the IC50 was less than 1 µM on IKBKB (IKKβ), 1 to 5 µM with THP-1 cells and greater than 5 µM with human whole blood.
